Test results from ChEMBL document CHEMBL1201862, “PubChem BioAssay data set” (2004).
Activity calls are given as the source filed them.

Legend:
[1] = target: Trypsin (Sus scrofa, UniProt P00761); test: trypsin protease activity blockade – biochemical, quenched peptide fluorescence, cherry-pick, selectivity assay for Rce1 protease inhibitor project, dose response (AID 488789)
[2] = target: T1, CAAX prenyl protease 2 (Saccharomyces cerevisiae S288c, UniProt Q03530); type: biochemical
T1 sequence (Q03530 whole entry): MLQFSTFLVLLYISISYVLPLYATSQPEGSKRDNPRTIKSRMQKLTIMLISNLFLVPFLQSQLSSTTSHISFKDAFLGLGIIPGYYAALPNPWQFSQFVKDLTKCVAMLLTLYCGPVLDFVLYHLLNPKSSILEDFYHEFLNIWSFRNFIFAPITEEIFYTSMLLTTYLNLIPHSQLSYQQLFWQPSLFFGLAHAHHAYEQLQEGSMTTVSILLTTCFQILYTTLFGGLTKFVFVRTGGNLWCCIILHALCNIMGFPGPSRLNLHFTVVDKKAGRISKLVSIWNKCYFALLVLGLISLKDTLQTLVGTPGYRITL

[3] = target: T2, CAAX prenyl protease 2 (Homo sapiens, UniProt Q9Y256); test: inhibition of Ras-converting CAAX protease Rce1 – biochemical, yeast membranes, quenched-peptide fluorescence, cherry-pick, dose response (AID 588849)
T2 sequence (Q9Y256 whole entry): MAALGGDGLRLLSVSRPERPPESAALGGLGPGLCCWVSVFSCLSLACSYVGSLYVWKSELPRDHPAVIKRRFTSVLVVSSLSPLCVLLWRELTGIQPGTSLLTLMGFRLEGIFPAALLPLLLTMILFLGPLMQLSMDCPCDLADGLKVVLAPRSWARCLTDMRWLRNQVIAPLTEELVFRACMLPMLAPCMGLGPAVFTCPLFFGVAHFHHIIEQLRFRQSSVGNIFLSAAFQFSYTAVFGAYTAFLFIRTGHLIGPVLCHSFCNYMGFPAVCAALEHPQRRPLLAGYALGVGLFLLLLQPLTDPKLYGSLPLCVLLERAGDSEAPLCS

[4] = target: T3, Short transient receptor potential channel 4 (Mus musculus, UniProt Q9QUQ5); test: block of DAMGO-driven TRPC4 calcium entry – cell-based, HEK293 TRPC4/mu-opioid, Fluo-4 calcium, dose response (AID 434942); type: functional;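 also: potency of inhibitors blocking the TRPC4 calcium response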
T3 sequence (Q9QUQ5 whole entry): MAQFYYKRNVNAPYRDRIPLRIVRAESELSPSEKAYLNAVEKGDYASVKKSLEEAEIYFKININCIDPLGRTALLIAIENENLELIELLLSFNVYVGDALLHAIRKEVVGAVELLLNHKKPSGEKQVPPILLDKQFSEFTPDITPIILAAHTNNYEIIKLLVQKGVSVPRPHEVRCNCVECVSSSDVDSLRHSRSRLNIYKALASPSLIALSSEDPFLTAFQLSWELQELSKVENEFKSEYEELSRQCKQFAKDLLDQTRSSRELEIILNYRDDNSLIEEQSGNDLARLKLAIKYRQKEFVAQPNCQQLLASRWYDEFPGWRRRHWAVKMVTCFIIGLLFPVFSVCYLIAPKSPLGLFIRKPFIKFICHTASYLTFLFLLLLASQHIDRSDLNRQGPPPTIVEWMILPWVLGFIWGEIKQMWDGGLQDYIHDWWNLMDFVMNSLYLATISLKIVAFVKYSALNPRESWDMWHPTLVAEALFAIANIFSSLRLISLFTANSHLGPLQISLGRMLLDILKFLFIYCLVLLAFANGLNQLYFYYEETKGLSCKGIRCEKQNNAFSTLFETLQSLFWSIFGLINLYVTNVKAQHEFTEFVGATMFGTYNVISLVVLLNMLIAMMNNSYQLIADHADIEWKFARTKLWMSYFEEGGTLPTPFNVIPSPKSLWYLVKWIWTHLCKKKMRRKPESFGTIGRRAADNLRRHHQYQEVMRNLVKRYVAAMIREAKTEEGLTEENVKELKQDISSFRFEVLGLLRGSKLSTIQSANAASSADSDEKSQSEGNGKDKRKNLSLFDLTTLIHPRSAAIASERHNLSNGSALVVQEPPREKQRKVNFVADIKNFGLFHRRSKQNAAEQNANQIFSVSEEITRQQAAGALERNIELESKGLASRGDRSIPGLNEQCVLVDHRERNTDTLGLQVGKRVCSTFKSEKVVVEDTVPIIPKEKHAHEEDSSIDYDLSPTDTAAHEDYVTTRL

[5] = target: T3, Short transient receptor potential channel 4; test: calcium entry via TRPC4 opening agents – cell-based, HEK293 TRPC4/mu-opioid, Fluo-4 calcium, dose response (AID 434937); type: functional
[6] = Luminescence Cell-Based Dose Retest to Confirm Inhibitors of Cancer Stem Cells. [Related pubchem assays (depositor defined):AID2717, AID2721]; type: functional; conditions: Homo sapiens
[7] = tested on: Jurkat; test: blockers of NF-kB activation in T cells – Jurkat, luciferase reporter, luminescence, B- and T-cell, dose response (AID 489004); type: functional, cell-based; conditions: Homo sapiens;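 also: NF-kB luciferase reporter Jurkat cells stimulated with PMA plus ionomycin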
[8] = alpha-synuclein stem-loop luciferase translation blockers – H4 neuroglioma cells, luminescence, confirmation (AID 1988); type: functional, cell-based
[9] = HEK-293T viability loss, compound-treated – cell-based, uHTS hits, cytotoxicity control for B/T-cell NF-kB inhibitor project, dose response (AID 489019); type: functional;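 also: IC50 reflects cytotoxicity as loss of cell viability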
[10] = activation of miR-122 Renilla sensor silencing – cell-based, Huh7 psiCHECK-miR122, Renilla luciferase, cherry-picked, dose response (AID 651956); type: functional;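 also: huh7 hepatoma cells stably carrying a psiCHECK-2 miR-122 sensor plasmid; renilla luciferase signal reporting endogenous miR-122 activity after 48 h compound exposure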
[11] = Luminescence Cell-Based Dose Response HTS to Identify Inhibitors of 5'UTR Stem-Loop Driven Prion Protein mRNA Translation in H4 Neuroglioblastoma Cells. [Related pubchem assays: 1827 (Project Summary), 1813 (Primary HTS)]; type: functional
[12] = general mammalian cell viability loss – inhibitor set, cherry-pick, set 2, cytotoxicity control for miR-122 modulator project, dose response (AID 720697); type: functional, cell-based
[13] = target: T4, Hexokinase (Trypanosoma brucei, UniProt Q38C41); test: Confirmation assay for inhibitors of Trypanosoma brucei hexokinase 1-Analogue-first series. [Related pubchem assays (depositor defined):AID1430, AID1632, AID2516, AID2560, AID2579, AID2600, AID449725, AID492951]; type: functional
T4 sequence (Q38C41 whole entry): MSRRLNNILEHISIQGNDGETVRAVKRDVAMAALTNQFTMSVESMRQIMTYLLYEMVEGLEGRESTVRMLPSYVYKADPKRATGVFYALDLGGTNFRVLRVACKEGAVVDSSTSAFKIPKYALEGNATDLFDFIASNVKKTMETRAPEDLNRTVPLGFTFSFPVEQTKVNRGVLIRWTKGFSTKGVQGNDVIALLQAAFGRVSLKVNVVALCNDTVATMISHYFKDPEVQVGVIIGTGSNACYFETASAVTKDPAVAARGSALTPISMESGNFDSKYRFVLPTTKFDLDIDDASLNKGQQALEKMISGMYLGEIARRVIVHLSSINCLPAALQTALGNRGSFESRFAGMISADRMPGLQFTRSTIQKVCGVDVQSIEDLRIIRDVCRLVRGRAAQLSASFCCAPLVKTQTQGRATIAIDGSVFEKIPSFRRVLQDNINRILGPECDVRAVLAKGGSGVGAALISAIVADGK

Chain of Trypsin (P00761 whole entry): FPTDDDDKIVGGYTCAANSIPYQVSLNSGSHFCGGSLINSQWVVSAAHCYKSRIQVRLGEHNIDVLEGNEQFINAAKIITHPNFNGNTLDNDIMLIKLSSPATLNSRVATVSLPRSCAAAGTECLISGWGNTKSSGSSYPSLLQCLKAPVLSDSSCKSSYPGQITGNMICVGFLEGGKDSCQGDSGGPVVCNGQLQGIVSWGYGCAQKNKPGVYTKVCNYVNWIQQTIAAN

O=C(O)c1ccccc1NCCO
AC50 [1]: 8.2 µM (active) | AC50 [2]: 16.1 µM (active) | AC50 [3]: 5.81 µM (active)

OCC1(CC2CCCCO2)CCN(Cc2nc3ccccc3[nH]2)CC1 (stereo not drawn)
EC50 [4]: 3.35 µM (active) | EC50 [5]: 5.31 µM (active)

Nc1nc(Cl)nc2c1ncn2[C@H]1C[C@H](O)[C@@H](CO)O1 [CLADRIBINE]
AC50 [6]: 0.24 µM (active) | IC50 [7]: 0.66 µM (active) | EC50 [8]: 2.96 µM (active) | IC50 [9]: > 80 µM (inactive) | AC50 [10]: 50.9 µM (active) | EC50 [11]: 4.8 µM (active) | AC50 [12]: 9.07 µM (active)

COc1cc(C(=O)Nc2cc(Cl)ccc2C(=O)O)cc(OC)c1OC
IC50 [13]: > 25 µM (inactive)
